Reference: patent US20230349907A1, “BIOPROBES FOR LYSYL OXIDASES AND USES THEREOF” (Pharmaxis Ltd., priority 2020, published 2023)
pIC50: −log10 of the molar value. “And” between values parts separate entries of the source, which are not always exact repeats. Equal values may be shown once. Where a name gives a salt, the structure may show the parent alone.

Legend:
rhLOXL2 [1] = biological target: T1, rhLOXL2 (Homo sapiens (Human), UniProt Q9Y4K0); assay: antibody/bioprobe ELISA assay detecting rhLOXL2; type: binding
T1 sequence (Q9Y4K0 26-774): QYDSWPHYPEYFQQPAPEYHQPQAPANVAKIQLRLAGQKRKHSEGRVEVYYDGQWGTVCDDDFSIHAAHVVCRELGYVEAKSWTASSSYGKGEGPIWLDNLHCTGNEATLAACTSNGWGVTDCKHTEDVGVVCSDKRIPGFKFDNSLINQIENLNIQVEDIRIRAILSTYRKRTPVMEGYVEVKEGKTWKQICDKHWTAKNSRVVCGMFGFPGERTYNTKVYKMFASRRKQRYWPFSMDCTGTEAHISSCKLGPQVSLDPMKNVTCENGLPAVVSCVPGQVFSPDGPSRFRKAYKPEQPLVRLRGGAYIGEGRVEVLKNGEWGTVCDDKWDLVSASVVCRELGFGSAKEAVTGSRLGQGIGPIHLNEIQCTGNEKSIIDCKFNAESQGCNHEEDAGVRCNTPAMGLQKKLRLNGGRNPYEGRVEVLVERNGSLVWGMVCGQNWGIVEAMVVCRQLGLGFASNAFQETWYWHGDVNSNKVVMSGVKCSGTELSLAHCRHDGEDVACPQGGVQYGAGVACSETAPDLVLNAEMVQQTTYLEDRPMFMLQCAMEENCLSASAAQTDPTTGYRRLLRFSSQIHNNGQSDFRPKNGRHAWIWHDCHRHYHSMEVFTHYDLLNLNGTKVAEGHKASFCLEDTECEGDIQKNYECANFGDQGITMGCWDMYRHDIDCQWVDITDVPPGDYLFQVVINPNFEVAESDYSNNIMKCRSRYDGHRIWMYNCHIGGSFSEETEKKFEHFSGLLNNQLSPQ
Protocol: Antibody A (AF2639) was conjugated to beads, bound to high protein binding plates (microlon 600, high binding, flat bottom, Greiner 655061 using coating buffer containing 71.5 mM NaHCO3 and 28.5 mM Na2CO3) overnight at 4° C. After washing with a mild detergent (0.05% Tween 20) to remove excess and unbound antibody, the beads or plates were then incubated with blocking solution (1-5% BSA/TBS) to block any free binding spots, for 1 hour at room temperature. The blocking solution was then removed and rhLOXL2 was added and incubated for 3 hours at 4° C. After washing (with a mild detergent) to remove excess/unbound protein, bioprobe Compound 1-1 (which is conjugated with biotin) was incubated for 2 hours at 37° C. at a concentration between IC50 to IC100 of the rhLOXL2 (as measured in a standard biochemical assay eg Amplex Red/Resorufin). After a washing step (with a mild detergent) streptavidin conjugated to horseradish peroxidase or an appropriate label was added and incubation was continued for 1 hour at room temperature. After an additional washing step (with mild TBS/tween detergent), a detection substrate (resorufin or TMB) was added followed by the fluorescence read at Excitation: 565 nm/Emmission: 590 nm or maximum absorbance at 450 nm. A suitable capture antibody will allow for bioprobe binding whilst providing a large signal.
FIG. 3 depicts the absorbance values (optical density 450 nm) from the antibody/bioprobe assay, using one antibody and Compound 1-1 (FIG. 3A) AF2639 was used as the capture antibody, rhLOXL2 was used as the antigen and 80 nM of Compound 1-1 was used as the detection. FIG. 3B) Fitzgerald 70R-12876 was used as the capture antibody, rhLOXL2 is used as the antigen and 80 nM of Compound 1-1 is used as the detection.
When the bioprobe contains two biotin moieties, the signal is more robust than a single biotin counterpart. […] AF2639 was used as the capture, rhLOXL2 was used as the antigen and 78 nM of Compound 1-12 was used for detection.

LOX in human serum = LOX in human serum (Homo sapiens (Human), UniProt P28300); assay: LOX Bioprobe Activity Assay (Simoa); type: biochemical
LOX in human serum, sequence (P28300 169-417): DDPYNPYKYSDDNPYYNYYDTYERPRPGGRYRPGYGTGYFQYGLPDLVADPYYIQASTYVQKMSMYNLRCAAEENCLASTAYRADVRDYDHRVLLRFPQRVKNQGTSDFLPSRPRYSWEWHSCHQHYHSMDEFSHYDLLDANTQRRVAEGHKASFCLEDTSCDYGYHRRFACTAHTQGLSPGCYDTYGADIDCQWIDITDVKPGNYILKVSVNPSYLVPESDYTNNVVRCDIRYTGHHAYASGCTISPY
Protocol: The LOX Bioprobe Assay used a Simoa HD-1 analyzer and Simoa technology to run a 2-step digital immunoassay, to measure the activity of unbound LOX in human serum.
This assay used the same anti-LOX capture antibody as for the Protein Concentration Assay. The bioprobe (Compound 1-12) was diluted down to 130 μM in deionized H2O prior to being diluted in Detector Buffer. Before being loaded onto the analyzer, samples were diluted at least 6 fold in Assay Buffer (1% BSA, 0.25% Rabbit Serum, 2% PEG (20k MW), 0.55% Tween-20, 1×PBS; used to dilute samples, controls, and detector reagent). To determine the background signal, diluted samples were pre-incubated for 30 min with LOX inhibitor beta-aminoproprionitrile (BAPN).
In the LOX Bioprobe Activity 2-step immunoassay, target-antibody-coated paramagnetic beads (500k per mL) were combined with diluted sample and biotinylated detector-bioprobe ([…]) in the same incubation cuvette for 54 minutes. […]
A single-labeled target molecule results in sufficient fluorescent signal in 30 seconds to be detected and counted by the Simoa optical system. […] At higher target concentration, when most of the bead-containing wells have one or more labeled target molecules, the total fluorescence signal is proportional to the amount of target present in the sample. […]

Bovine LOX = Bovine LOX (Bos taurus (Bovine), UniProt P33072); assay: LOX inhibition, peroxidase-coupled Amplex Red assay; type: biochemical; details: 30 min preincubation at 37° C.
Bovine LOX, sequence (P33072 170-418): as the sequence (P28300 169-417) above, with S10T, G29S, A49P, S64A, T80S, A84X, N142S, G188N, T224S, D231E counted along it
Excerpt: (§1) Method to Determine the Ability of Compounds of the Invention to Inhibit LOX and LOXL1-4 from Different Sources […] S., Trackman P. C. and Kagan H. M., Reaction of aortic lysyl oxidase with beta-aminoproprionitrile. J Biol Chem 1983; 258: 4331-4338). There are five LOX family members; these are LOX, LOXL1, LOXL2, LOXL3 and LOXL4. LOX and LOXL family members can be acquired as recombinant active proteins from commercial sources, or extracted from animal tissues like bovine aorta, tendons, pig skin; or prepared from cell cultures. The inhibitory effects of the compounds of the present invention were tested against the given LOX-LOXL preparation using a high-throughput coupled colorimetric method (Holt A. and Palcic M., A peroxidase-coupled continuous absorbance plate-reader assay for flavin monoamine oxidases, copper-containing amine oxidases and related enzymes. Nat. Protoc. 2006; 1: 2498-2505). The assay was developed using either 384 or 96 well format. […] Test compounds were dissolved in DMSO and tested in a Concentration Response Curve (CRC) with 11 data points, typically in the micromolar or nanomolar range after incubation with the enzyme for 30 min at 37° C. 25 μL of a reaction mixture containing twice the KM concentration of putrescine (Sigma Aldrich, e.g. 20 mM for LOX, or 10 mM for LOXL2 and LOXL3), 120 μM Amplex Red (Sigma Aldrich) and 1.5 U/mL horseradish peroxidase (Sigma Aldrich) prepared in 1.2 M urea, 50 mM sodium borate buffer (pH 8.2) were then added to the corresponding wells. The above volumes were doubled in the case of 96 well plates. The fluorescence (RFU) was read every 2.5 m n for 30 m u […], excitation 565 nm and emission 590 nm (Optima; BMG labtech). The slope of the kinetics for each well was calculated using MARS data analysis software (BMG labtech) and this value was used to deduce the IC50 value (Dotmatics).

Human LOXL1 = Human LOXL1 (Homo sapiens (Human), UniProt Q08397); assay: LOXL1 inhibition, peroxidase-coupled Amplex Red assay; type: biochemical; details: 30 min preincubation at 37° C.
Human LOXL1, sequence (Q08397 96-574): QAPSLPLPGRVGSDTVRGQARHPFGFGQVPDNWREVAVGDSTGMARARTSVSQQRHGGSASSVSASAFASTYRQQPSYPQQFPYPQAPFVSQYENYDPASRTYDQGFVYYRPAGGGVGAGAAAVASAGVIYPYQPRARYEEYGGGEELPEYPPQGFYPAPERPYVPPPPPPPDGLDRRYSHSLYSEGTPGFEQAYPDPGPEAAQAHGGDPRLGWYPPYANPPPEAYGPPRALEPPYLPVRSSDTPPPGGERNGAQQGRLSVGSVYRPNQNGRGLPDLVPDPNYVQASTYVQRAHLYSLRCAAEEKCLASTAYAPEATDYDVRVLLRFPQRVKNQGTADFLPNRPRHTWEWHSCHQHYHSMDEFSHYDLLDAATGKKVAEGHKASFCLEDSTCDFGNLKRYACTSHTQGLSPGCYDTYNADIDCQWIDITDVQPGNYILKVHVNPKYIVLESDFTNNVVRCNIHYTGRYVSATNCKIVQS
Excerpt: (§2) Method to Determine the Ability of Compounds of the Invention to Inhibit LOX and LOXL1-4 from Different Sources […] S., Trackman P. C. and Kagan H. M., Reaction of aortic lysyl oxidase with beta-aminoproprionitrile. J Biol Chem 1983; 258: 4331-4338). There are five LOX family members; these are LOX, LOXL1, LOXL2, LOXL3 and LOXL4. LOX and LOXL family members can be acquired as recombinant active proteins from commercial sources, or extracted from animal tissues like bovine aorta, tendons, pig skin; or prepared from cell cultures. The inhibitory effects of the compounds of the present invention were tested against the given LOX-LOXL preparation using a high-throughput coupled colorimetric method (Holt A. and Palcic M., A peroxidase-coupled continuous absorbance plate-reader assay for flavin monoamine oxidases, copper-containing amine oxidases and related enzymes. Nat. Protoc. 2006; 1: 2498-2505). The assay was developed using either 384 or 96 well format. […] The fluorescence (RFU) was read every 2.5 m n for 30 m u at a range of temperatures from 37° C. to 45° C., excitation 565 nm and emission 590 nm (Optima; BMG labtech). The slope of the kinetics for each well was calculated using MARS data analysis software (BMG labtech) and this value was used to deduce the IC50 value (Dotmatics).

rhLOXL2 [2] = biological target: T1, rhLOXL2; assay: LOXL2 inhibition, peroxidase-coupled Amplex Red assay; type: biochemical; details: 30 min preincubation at 37° C.
Excerpt: as §1

Human LOXL3 = Human LOXL3 (Homo sapiens (Human), UniProt P58215); assay: LOXL3 inhibition, peroxidase-coupled Amplex Red assay; type: biochemical; details: 30 min preincubation at 37° C.
Human LOXL3, sequence (P58215 26-753): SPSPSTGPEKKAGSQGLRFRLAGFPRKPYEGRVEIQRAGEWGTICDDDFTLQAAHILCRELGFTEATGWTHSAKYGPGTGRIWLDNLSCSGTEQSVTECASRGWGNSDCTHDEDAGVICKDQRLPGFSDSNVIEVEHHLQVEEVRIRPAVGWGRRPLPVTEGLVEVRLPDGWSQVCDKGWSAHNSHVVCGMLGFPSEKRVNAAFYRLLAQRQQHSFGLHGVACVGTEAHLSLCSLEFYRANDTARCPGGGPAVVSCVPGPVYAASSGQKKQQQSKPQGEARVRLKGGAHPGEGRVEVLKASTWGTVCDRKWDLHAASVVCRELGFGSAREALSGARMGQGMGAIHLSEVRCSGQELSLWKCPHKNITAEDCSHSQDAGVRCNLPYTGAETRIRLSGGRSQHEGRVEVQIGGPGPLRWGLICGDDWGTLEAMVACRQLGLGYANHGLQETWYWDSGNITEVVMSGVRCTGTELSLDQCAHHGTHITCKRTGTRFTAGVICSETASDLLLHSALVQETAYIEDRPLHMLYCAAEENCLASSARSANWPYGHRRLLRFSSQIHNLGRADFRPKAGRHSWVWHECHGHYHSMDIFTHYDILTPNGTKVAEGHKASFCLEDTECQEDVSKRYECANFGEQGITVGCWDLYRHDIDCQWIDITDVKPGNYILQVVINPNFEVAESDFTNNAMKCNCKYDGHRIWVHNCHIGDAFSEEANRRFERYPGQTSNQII
Excerpt: as §2

Human LOXL4 = Human LOXL4 (Homo sapiens (Human), UniProt Q96JB6); assay: LOXL4 inhibition, peroxidase-coupled Amplex Red assay; type: biochemical; details: 30 min preincubation at 37° C.
Human LOXL4, sequence (Q96JB6 25-756): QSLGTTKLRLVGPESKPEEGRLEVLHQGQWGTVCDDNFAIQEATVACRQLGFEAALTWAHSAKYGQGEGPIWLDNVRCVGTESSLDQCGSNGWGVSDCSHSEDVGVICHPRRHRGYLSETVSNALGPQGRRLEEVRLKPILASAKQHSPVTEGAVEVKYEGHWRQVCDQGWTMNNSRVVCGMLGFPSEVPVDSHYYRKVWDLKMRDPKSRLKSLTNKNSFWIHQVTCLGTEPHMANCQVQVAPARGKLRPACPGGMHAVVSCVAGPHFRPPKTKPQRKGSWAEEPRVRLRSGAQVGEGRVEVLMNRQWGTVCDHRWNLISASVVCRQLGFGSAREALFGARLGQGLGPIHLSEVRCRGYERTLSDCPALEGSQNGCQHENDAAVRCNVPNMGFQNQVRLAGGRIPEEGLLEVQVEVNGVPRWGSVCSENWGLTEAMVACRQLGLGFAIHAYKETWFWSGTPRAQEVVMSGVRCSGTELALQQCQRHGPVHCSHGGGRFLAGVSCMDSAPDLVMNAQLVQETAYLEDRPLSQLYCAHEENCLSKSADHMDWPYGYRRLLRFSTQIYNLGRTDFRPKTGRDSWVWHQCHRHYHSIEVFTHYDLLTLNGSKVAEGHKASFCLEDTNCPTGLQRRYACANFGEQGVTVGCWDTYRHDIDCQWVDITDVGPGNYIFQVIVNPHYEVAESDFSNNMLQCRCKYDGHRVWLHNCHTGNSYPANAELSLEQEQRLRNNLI
Excerpt: as §2

rhLOXL2 [3] = biological target: T1, rhLOXL2; assay: sandwich ELISA with bioprobe pre-incubated with rhLOXL2; type: binding; details: 400 nM bioprobe pre-incubated, 1250 ng/mL rhLOXL2, AF2639 capture, antibody C (C-AB179810) detection, FIG. 5
Protocol: A further aim was directed at determining whether the presence of bioprobe (Compound 1-1), pre-incubated and bound to the active site of rhLOXL2, would affect antibody binding and detection by sandwich ELISA. […] FIG. 5 depicts the absorbance values (optical density 460 nm) from the antibody/antibody assay, using two antibodies. Antibody A (AF2639) was used as the capture antibody, 1250 ng/mL rhLOXL2 was used as the antigen and antibody C (C-AB179810) was used as the detection antibody. 400 nM of Compound 1-1 was pre-incubated with rhLOXL2 before commencement of the ELISA assay.

Row | pIC50 (Bovine LOX) | pIC50 (Human LOXL1) | pIC50 (rhLOXL2 [2]) | pIC50 (Human LOXL3) | pIC50 (Human LOXL4) | signal of bioprobe with two biotin moieties versus single biotin counterpart (optical density 460 nm) (rhLOXL2 [1]; AF2639 capture, 78 nM bioprobe, FIG. 4) | rhLOXL2 signal by bioprobe detection (optical density 450 nm) (rhLOXL2 [1]; Antibody A (AF2639) as capture antibody, 80 nM bioprobe, FIG. 3A) | rhLOXL2 detection by bioprobe (optical density 450 nm) (rhLOXL2 [1]; Antibody B (Fitzgerald 70R-12876) as capture antibody, 80 nM bioprobe, FIG. 3B) | Structure (SMILES) | effect of inhibitor on bioprobe rhLOXL2 signal (rhLOXL2 [1]; AF2639 capture, Compound 1-1 detection, FIG. 3A) | Average signal (LOX in human serum; human serum + CM (×100 diluted) + BAPN, bioprobe Compound 1-12) | effect of inhibitor on LOX bioprobe signal (LOX in human serum; human serum spiked with human fibroblast conditioned media) | rhLOXL2 detection levels in the presence or absence of bioprobe (rhLOXL2 [3])
1 |  |  |  |  |  |  |  |  | N#CCCN [BAPN, β-aminopropionitrile] | the signal is ablated | 0.0093 and 0.0077 | significantly reduces the signal | 
2 | < 6.52 | < 6.52 | > 6.52 | < 6.52 | > 6.52 | more robust |  |  | NC/C=C(\F)CS(=O)(=O)c1cccc(Cn2cc(-c3cc(OCCCc4cn(CCCCC[C@@H]5SC[C@@H]6NC(=O)N[C@@H]65)nn4)cc(OCCCc4cn(CCCCC[C@@H]5SC[C@@H]6NC(=O)N[C@@H]65)nn4)c3)nn2)c1 [Compound 1-12, (3aS,3a'S,4S,4'S,6aR,6a′R)-4,4′-(((((5-(1-(3-(((Z)-4-amino-2-fluorobut-2-en-1-yl)sulfonyl)benzil)-1H-1,2,3-triazol-4-yl)-1,3-phenylene)bis(oxy))bis(propane-3,1-diyl))bis(1H-1,2,3-triazole-4,1-diyl))bis(pentane-5,1-diyl))bis(tetrahydro-1H-thieno[3,4-d]imidazol-2(3H)-one) hydrochloride] |  |  |  | 
3 | > 6.52 |  | > 6.52 | > 6.52 |  |  |  |  | CN(C)S(=O)(=O)c1ccc(C(OCc2ccc(-n3cc(CNC(=O)CCCC[C@@H]4SC[C@@H]5NC(=O)N[C@@H]54)nn3)cc2)c2cn(C/C(F)=C/CN)nn2)cc1 (stereo partly drawn) [Compound 1-15, N-((1-(4-(((1-((Z)-4-amino-2-fluorobut-2-en-1-yl)-1H-1,2,3-triazol-4-yl)(4-(N,N-dimethylsulfamoyl)phenyl)methoxy)methyl)phenyl)-1H-1,2,3-triazol-4-yl)methyl)-5-((3aS,4S,6aR)-2-oxohexahydro-1H-thieno[3,4-d]imidazol-4-yl)pentanamide hydrochloride] |  |  |  | 
4 | < 6.52 |  | > 6.52 |  |  |  | shows a specific rhLOXL2 signal | prevents the detection of rhLOXL2 | Cc1c(Cc2ccc(S(=O)(=O)N(C)C)cc2)c2cc(C(=O)N3CCN(C(=O)CCCC[C@@H]4SC[C@@H]5NC(=O)N[C@@H]54)CC3)ccc2n1C/C(F)=C/CN [Compound 1-1, 4-((1-((Z)-4-amino-2-fluorobut-2-en-1-yl)-2-methyl-5-(4-(5-((3aS,4S,6aR)-2-oxohexahydro-1H-thieno[3,4-d]imidazol-4-yl)pentanoyl)piperazine-1-carbonyl)-1H-indol-3-yl)methyl)-N,N-dimethylbenzenesulfonamide hydrochloride] |  |  |  | no difference in rhLOXL2 detection levels
